Measured values: patent US11999723B2, “Pyrazole-containing macrophage migration inhibitory factor inhibitors” (priority 2018, dated 2024)
≈ marks a conversion by molar mass, not a printed value. Where “and” joins values, the source holds several entries; their conditions need not be identical. Identical values can stand only once. Like-named read-outs stand apart in the source and are kept apart here.

Tests used:
[1] = Aqueous solubility, shake-flask method; assay type: physicochemical; details: Britton-Robinson buffer at pH 6.5; for solubility at 48 h: 30 °C, aqueous buffer, thermodynamic from solid
Description: Aqueous solubility values of selected compounds were obtained via the shake-flask method. The solid sample (1-4 mg) was suspended in 1.5-2.0 mL Britton-Robinson (BR) buffer (0.04 M acetic acid, 0.04 M phosphoric acid, 0.04 M boric acid, pH 6.5). The mixture, containing excess undissolved compound, was stirred at 30° C. for 48 hours. The saturated solution was separated from the precipitate by filtration through a 0.45 μm polyethersulfone membrane (VWR International). The filtrate was diluted with BR buffer if necessary, then cut with an equal volume of DMSO. UV-vis absorbance was measured with an Agilent 8453 UV-visible Spectroscopy System (200-900 nm). Calibration curves were prepared with sample concentrations ranging from 0.24 μg/mL-0.25 mg/mL in 50:50 DMSO/BR buffer. Reported solubility results are the average values of two shake-flask experiments run in parallel. Piroxicam (purchased from Sigma-Aldrich) was used as a control, using BR buffer at pH 3.73.
The compounds reported here are listed in Table 2 along with the results from the tautomerase assay. The identity of assayed compounds was confirmed by ^1H and ^13C NMR and high-resolution mass spectrometry; HPLC analyses established purity as >95%. As in prior studies, the inhibition constants Ki were determined using HPP as the substrate. Inhibitory activity is monitored by measuring formation of the borate complex of the enol product at 305 nm using a Tecan Infinite F500 plate reader. In addition, the aqueous solubilities of several compounds were measured with a shake-flask procedure. Saturated solutions are filtered (polyethersulfone syringe, 0.2 μm pore) and analyzed by UV-vis spectroscopy (Agilent 8453).

MIF [2] = biological target: T1, MIF (Homo sapiens (Human), UniProt P14174); assay: HPP tautomerase assay (inhibition of the tautomerase activity of MIF); assay type: biochemical
T1 sequence (P14174 2-115): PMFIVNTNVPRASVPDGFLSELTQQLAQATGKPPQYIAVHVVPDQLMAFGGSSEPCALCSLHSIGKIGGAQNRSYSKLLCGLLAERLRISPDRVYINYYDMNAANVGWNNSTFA
Description: Inhibition of the tautomerase activity of MIF was measured using the substrate 4-hydroxyphenyl pyruvic acid (HPP) in a procedure largely adapted from previous reports. A solution of HPP (10 mM) in acetate buffer (0.5 M ammonium acetate, pH adjusted to 6.0) was prepared and allowed to incubate overnight in the dark at room temperature to allow for equilibration of the keto and enol forms. Following the incubation period, the HPP solution was stored at 4° C. and used for no more than a week. […] A negative control (containing water and DMSO in lieu of protein and inhibitor, respectively) and a positive control (containing DMSO in lieu of inhibitor) were also prepared. The reaction began upon the addition of HPP solution (final concentration: 1.0 mM and 2.5 mM). […] Absorbance was measured three times for each [inhibitor]-[HPP] combination. […] Reported Ki values represent the average value obtained from two assays performed on different days. (R)-ISO-1 (purchased from Santa Cruz Biotechnology) was used as a control.
Recombinant human MIF was expressed and purified according to published protocols. Briefly, for the purification of MIF, E. coli cell pellets were suspended in lysis buffer (20 mM Tris, pH 7.5; 20 mM sodium chloride; 10% glycerol; 2 mM magnesium chloride; 1 cOmplete mini protease inhibitor cocktail tablet per 250 mL of buffer). The solution was sonicated and centrifuged at 27,000G for 30 mins. The supernatant was filtered through a 0.22 μm syringe filter and loaded on a GE Healthcare Hi-Trap SP HP column in sequence with a GE Healthcare Hi-Trap Q SP column equilibrated with a buffer composed of 20 mM NaCl and 20 mM Tris, pH 7.5. […] To achieve highest purity, the flow-through was further purified with a GE Healthcare Superdex 200 column. The purified protein was concentrated with a 10 kDa centrifugal filter unit to 30 mg/mL, flash-frozen in liquid nitrogen, and stored at −80° C.
As in prior studies, the inhibition constants Ki were determined using HPP as the substrate. […] In addition, the aqueous solubilities of several compounds were measured with a shake-flask procedure.

MIF [3] = biological target: T1, MIF; assay: Tautomerase assay using 4-hydroxyphenylpyruvate (HPP), initial virtual screening study; assay type: biochemical; details: at 50 μM; HPP substrate
Excerpt: Success in the past has come from exchange of the phenol for a 6:5 fused heteroaromatic incorporating a pyrrole or pyrazole that retains the hydrogen-bond donating character of phenol. However, the MIF active site is too constricted near Asn97 for this approach to be viable; addition of a methyl group ortho to the hydroxyl group for the compound in FIG. 1 leads to a ca. 100-fold loss in activity. Instead, interest has focused on direct replacement of the phenol by a pyrazole. […] Thus, an alternative series from the virtual screening and from de novo design was pursued, which provided the biaryltriazoles including 2. However, interest in 5 was renewed since in another phenol-containing inhibitor series rapid metabolic glucoronidation and sulfation were observed. It was decided to retest 5 in an HPP tautomerase assay using optimized protocols.

[4] = HPP as substrate, MIF tautomerase, read-out: Experimental inhibition constants, Ki
[5] = Table 3, HPP as substrate, unit inferred, read-out: HPP Ki

Row | Structure (SMILES) | solubility at 48 h [1] | Ki (MIF [2]; [4]) [µM] | also measured
1 | NS(=O)(=O)c1cc(-c2cn[nH]c2)ccc1Oc1ccc2ccccc2c1 [Compound 8i, 2-(Naphthalen-2-yloxy)-5-(1H-pyrazol-4-yl)benzenesulfonamide] | 0.0552 mg/mL (≈ 151 µM) | 5.6 | –
2 | CCOc1ccc(-c2cccc(Oc3ccc(-c4c[nH]nc4F)cc3C(=O)O)c2)cc1 [Compound 8w, 2-((4′-Ethoxy-[1,1′-biphenyl]-3-yl)oxy)-5-(3-fluoro-1H-pyrazol-4-yl)benzoic acid] | 0.0017 ± 0.0007 mg/mL (≈ 4.06 µM) | 0.075 | Ki (MIF [2]): ~0.07 µM
3 | O=C(O)c1cccc(-c2cn[nH]c2)c1 [Compound 5, reference compound] | – | – | maximum inhibition (MIF [3]): 30%; aqueous solubility [1]: 927+88 μg/mL
4 | O=C(O)c1cc(-c2c[nH]nc2F)ccc1Oc1cccc(-c2ccc(OCCCN3CCOCC3)cc2)c1 [Compound 8x, 5-(3-Fluoro-1H-pyrazol-4-yl)-2-((4′-(3-morpholinopropoxy)-[1,1′-biphenyl]-3-yl)oxy)benzoic acid] | 34.6 µg/mL and 67 µM | – | –
5 | O=C(O)c1cc(-c2c[nH]nc2F)ccc1Oc1ccc2ccccc2c1 [Compound 8n, 5-(3-Fluoro-1H-pyrazol-4-yl)-2-(naphthalen-2-yloxy)benzoic acid] | 0.681 mg/mL (≈ 1960 µM) | – | –
6 | O=C(O)c1cc(-c2c[nH]nc2F)ccc1Oc1cc(C2CC2)c2ccccc2c1 [Compound 8r, 2-((4-Cyclopropylnaphthalen-2-yl)oxy)-5-(3-fluoro-1H-pyrazol-4-yl)benzoic acid] | – | 0.11 | –
7 | O=C(O)c1cc(-c2cn[nH]c2)ccc1Oc1ccc(F)cc1 [Compound 8f, 2-(4-Fluorophenoxy)-5-(1H-pyrazol-4-yl)benzoic acid] | – | 4.6 | –
8 | COc1cccc(Oc2ccc(-c3cn[nH]c3)cc2C(=O)O)c1 [Compound 9i, 2-(3-methoxyphenoxy)-5-(1H-pyrazol-4-yl)benzoic acid] | – | – | Ki (MIF [2]; [5]): 2.5 µM
9 | O=C(O)c1cc(-c2cn[nH]c2)ccc1Oc1ccc2ccccc2c1 [Compound 8g, 2-(Naphthalen-2-yloxy)-5-(1H-pyrazol-4-yl)benzoic acid] | 0.739 mg/mL (≈ 2240 µM) | 4.3 | –
10 | O=C(O)c1cc(-c2cn[nH]c2)ccc1OC1C2CC3CC(C2)CC1C3 (centres unmarked) [Compound 8k, 2-((Adamantan-2-yl)oxy)-5-(1H-pyrazol-4-yl)benzoic acid] | – | 2.6 | –
11 | O=C(O)c1cc(-c2cn[nH]c2)ccc1Oc1ccccc1 [Compound 8a, 2-Phenoxy-5-(1H-pyrazol-4-yl)benzoic acid] | – | 6.8 | –
12 | O=C(O)c1cc(-c2cn[nH]c2)ccc1Oc1ccc(Cl)cc1 [Compound 9g, 2-(4-chlorophenoxy)-5-(1H-pyrazol-4-yl)benzoic acid] | – | – | Ki (MIF [2]; [5]): 8.4 µM
